Test results reported in patent US12655107B2 (The United States of America, as represented by the …, priority 2018, dated 2026).
Where two headings read alike, the source gives them in different places.

What was measured:
Top1 = target: T1, Top1 (Homo sapiens, UniProt P11387); test: Top1-mediated DNA cleavage assay; assay type: biochemical; conditions: graded relative to CPT at 1 μM, Table 7
T1 sequence (P11387 1-765): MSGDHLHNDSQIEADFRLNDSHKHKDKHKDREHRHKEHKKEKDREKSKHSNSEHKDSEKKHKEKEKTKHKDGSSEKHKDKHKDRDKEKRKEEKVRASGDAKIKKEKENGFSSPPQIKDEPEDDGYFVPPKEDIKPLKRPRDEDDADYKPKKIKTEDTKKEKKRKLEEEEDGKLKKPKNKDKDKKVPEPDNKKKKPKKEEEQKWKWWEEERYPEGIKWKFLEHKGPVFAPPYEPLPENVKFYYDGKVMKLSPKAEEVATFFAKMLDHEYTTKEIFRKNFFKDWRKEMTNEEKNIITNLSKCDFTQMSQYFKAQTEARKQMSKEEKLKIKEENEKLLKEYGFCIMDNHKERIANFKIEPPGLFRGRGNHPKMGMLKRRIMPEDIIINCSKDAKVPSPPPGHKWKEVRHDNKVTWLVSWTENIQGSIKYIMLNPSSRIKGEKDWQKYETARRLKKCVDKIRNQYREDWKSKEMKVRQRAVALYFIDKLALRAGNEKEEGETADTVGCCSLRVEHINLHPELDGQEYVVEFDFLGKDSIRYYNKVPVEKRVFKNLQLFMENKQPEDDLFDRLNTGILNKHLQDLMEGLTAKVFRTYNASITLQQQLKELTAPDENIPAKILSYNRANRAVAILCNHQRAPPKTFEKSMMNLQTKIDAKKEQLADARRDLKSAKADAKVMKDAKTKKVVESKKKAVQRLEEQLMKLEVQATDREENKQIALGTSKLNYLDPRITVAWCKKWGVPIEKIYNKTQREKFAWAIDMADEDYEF

[1] = target: T2, Top1-DNA covalent cleavage complexes in HCT116 cells (Homo sapiens, UniProt P11387); test: Immunocomplex of enzyme to DNA (ICE) assay; assay type: cell-based; conditions: HCT116, 25, 50 and 100 μM
T2 construct: endogenous in cells; host or cells: HCT116 (human colon cancer)

DU145 = test: MTT cytotoxicity assay, DU145; assay type: cell-based, human
Method: (§1) Cytotoxicity Assays. […] The cells were incubated with the tested compounds for 72 hours in a five-dose assay ranging from 0.01 to 100 μM concentration. After drug treatments, MTT solution was added to test the percentage growth of tumor cells.
(§2) The compounds were incubated with the cells for 72 hours in a five-dose assay ranging from 0.01 to 100 μM concentration. At the end of the incubation, the MTT solution was added to test the percentage growth of tumor cells.
(§3) For the drug treatment experiments, the cancer cells were treated with the compounds (predissolved in DMSO) at a five-dose assay ranging from 0.01 to 100 μM concentration. […] After 4 h incubation, the formazan crystal formed in the well was dissolved with […] of DMSO for optical density reading at 570 nm. The GI50 value was calculated by nonlinear regression analysis (GraphPad Prism).

HCT116 = test: MTT cytotoxicity assay, HCT116; assay type: cell-based, human
Method: as §1, §2, §3

MCF-7 = test: MTT cytotoxicity assay, MCF-7; assay type: cell-based, human
Method: as §2, §3

ACHN = test: NCI-60 cytotoxicity; assay type: cell-based, human; conditions: NCI-60 Renal Cancer, 48 h
Method: (§4) Cell growth inhibition (GI50 in Table 3) was calculated relative to cells without compound treatment and the time zero control.
(§5) Regarding Table 8, according to the NCI established procedures, the cells were incubated with 67 or 50 for 48 hours and stained with sulforhodamine B dye.

CCRF-CEM = test: NCI-60 cytotoxicity; assay type: cell-based, human; conditions: NCI-60 Leukemia, 48 h
Method: as §4, §5

CAKI-1 = test: NCI-60 cytotoxicity; assay type: cell-based, human; conditions: NCI-60 Renal Cancer, 48 h
Method: as §4, §5

EKVX = test: NCI-60 cytotoxicity; assay type: cell-based, human; conditions: NCI-60 Non-Small Cell Lung Cancer, 48 h
Method: as §4, §5

SK-MEL-28 = test: NCI-60 cytotoxicity; assay type: cell-based, human; conditions: NCI-60 Melanoma, 48 h
Method: as §4, §5

KM12 = test: NCI-60 cytotoxicity; assay type: cell-based, human; conditions: NCI-60 Colon Cancer, 48 h
Method: as §4, §5

HS 578T = test: NCI-60 cytotoxicity; assay type: cell-based, human; conditions: NCI-60 Breast Cancer, 48 h
Method: as §4, §5

NCI-H226 = test: NCI-60 cytotoxicity; assay type: cell-based, human; conditions: NCI-60 Non-Small Cell Lung Cancer, 48 h
Method: as §4, §5

SNB-19 = test: NCI-60 cytotoxicity; assay type: cell-based, human; conditions: NCI-60 CNS Cancer, 48 h
Method: as §4, §5

HCC-2998 = test: NCI-60 cytotoxicity; assay type: cell-based, human; conditions: NCI-60 Colon Cancer, 48 h
Method: as §4, §5

OVCAR-4 = test: NCI-60 cytotoxicity; assay type: cell-based, human; conditions: NCI-60 Ovarian Cancer, 48 h
Method: as §4, §5

NCI-H460 = test: NCI-60 cytotoxicity; assay type: cell-based, human; conditions: NCI-60 Non-Small Cell Lung Cancer, 48 h
Method: as §4, §5

UACC-257 = test: NCI-60 cytotoxicity; assay type: cell-based, human; conditions: NCI-60 Melanoma, 48 h
Method: as §4, §5

HT29 = test: NCI-60 cytotoxicity; assay type: cell-based, human; conditions: NCI-60 Colon Cancer, 48 h
Method: as §4, §5

MDA-MB-231/ATCC = test: NCI-60 cytotoxicity; assay type: cell-based, human; conditions: NCI-60 Breast Cancer, 48 h
Method: as §4, §5

LOX IMVI = test: NCI-60 cytotoxicity; assay type: cell-based, human; conditions: NCI-60 Melanoma, 48 h
Method: as §4, §5

HOP-92 = test: NCI-60 cytotoxicity; assay type: cell-based, human; conditions: NCI-60 Non-Small Cell Lung Cancer, 48 h
Method: as §4, §5

OVCAR-8 = test: NCI-60 cytotoxicity; assay type: cell-based, human; conditions: NCI-60 Ovarian Cancer, 48 h
Method: as §4, §5

SK-MEL-5 = test: NCI-60 cytotoxicity; assay type: cell-based, human; conditions: NCI-60 Melanoma, 48 h
Method: as §4, §5

PC-3 = test: NCI-60 cytotoxicity; assay type: cell-based, human; conditions: NCI-60 Prostate Cancer, 48 h
Method: as §4, §5

SNB-75 = test: NCI-60 cytotoxicity; assay type: cell-based, human; conditions: NCI-60 CNS Cancer, 48 h
Method: as §4, §5

[2] = 72 h, Table 7, read-out: GI50 ± SC (μM) DU145
[3] = 72 h, Table 7, read-out: GI50 ± SC (μM) HCT116
[4] = 72 h, Table 7, read-out: GI50 ± SC (μM) MCF-7

CNCCn1c(=O)c2cc(OC)c(OC)cc2c2ccc3cc4c(cc3c21)OCO4 [Compound 50, 2,3-dimethoxy-12-(2-(methylamino)ethyl)-[1,3]dioxolo[4′5′:4,5]benzo[1,2-c]phenanthridin-13(12H)-one]
TOP1 inhibition (Top1): +++ (+++, between 75% and 95% activity) | induction of cellular Top1cc [1]: induced the formation of cellular TOP1 cc in a dose-dependent manner | GI50 (DU145; [2]): 0.002 µM | GI50 (DU145; read-out: GI50 ± SD (μM) Parental cell line DU-145, drug-resistance panel): 0.002 ± 0.001 µM | GI50 (HCT116; [3]): 0.036 µM | GI50 (HCT116; drug-resistance panel, read-out: GI50 ± SD (μM) Parental cell line HCT116): 0.036 ± 0.003 µM | GI50 (MCF-7; [4]): 0.09 µM | GI50 (MCF-7; drug-resistance panel, read-out: GI50 ± SD (μM) Parental cell line MCF-7): 0.1 ± 0.001 µM | GI50 (ACHN): 0.0856 µM | GI50 (CCRF-CEM): 0.0201 µM | GI50 (CAKI-1): 0.0644 µM | GI50 (EKVX): 0.202 µM | GI50 (SK-MEL-28): 0.573 µM | GI50 (KM12): 0.238 µM | GI50 (HS 578T): 0.904 µM | GI50 (NCI-H226): 0.172 µM | GI50 (SNB-19): 0.116 µM | GI50 (HCC-2998): 0.156 µM | GI50 (OVCAR-4): 0.154 µM | GI50 (NCI-H460): 0.0212 µM | GI50 (UACC-257): 0.122 µM | GI50 (HT29): 0.0508 µM | GI50 (MDA-MB-231/ATCC): 0.362 µM | GI50 (LOX IMVI): 0.0389 µM | GI50 (HOP-92): 0.184 µM | GI50 (OVCAR-8): 0.132 µM | GI50 (SK-MEL-5): 0.0909 µM | GI50 (PC-3): 0.112 µM | GI50 (SNB-75): 0.0885 µM

COc1cc2c(=O)n(CCN)c3c4cc5c(cc4ccc3c2cc1OC)OCO5 [Compound 67, 12-(2-aminoethyl)-2,3-dimethoxy-[1,3]dioxolo[4′,5′:4,5]benzo[1,2-c]phenanthridin-13(12-H)-one]
TOP1 inhibition (Top1): ++ (++, between 50% and 75% activity) | GI50 (DU145; [2]): 0.014 ± 0.001 µM | GI50 (HCT116; [3]): 0.29 ± 0.019 µM | GI50 (MCF-7; [4]): 0.1 ± 0.001 µM | GI50 (ACHN): 0.366 µM | GI50 (CCRF-CEM): 0.15 µM | GI50 (CAKI-1): 0.295 µM | GI50 (EKVX): 1.36 µM | GI50 (SK-MEL-28): 3.05 µM | GI50 (KM12): 1.1 µM | GI50 (HS 578T): 1.96 µM | GI50 (NCI-H226): 1.34 µM | GI50 (SNB-19): 0.398 µM | GI50 (HCC-2998): 1.02 µM | GI50 (OVCAR-4): 0.782 µM | GI50 (NCI-H460): 0.23 µM | GI50 (UACC-257): 1.9 µM | GI50 (HT29): 0.168 µM | GI50 (MDA-MB-231/ATCC): 1.28 µM | GI50 (LOX IMVI): 0.246 µM | GI50 (HOP-92): 3.56 µM | GI50 (OVCAR-8): 0.93 µM | GI50 (SK-MEL-5): 0.614 µM | GI50 (PC-3): 0.532 µM | GI50 (SNB-75): 0.596 µM
